Measured values from PMC10482975 (Nature Communications, 2023).

What was measured:
M4 mAChR WT = molecular target: T1, M4 mAChR WT (Homo sapiens, UniProt P08173); assay: [3H]-NMS radioligand dissociation binding, M4 mAChR WT; conditions: for [3H]-NMS binding remaining (0 min = 100), MEAN: M4 mAChR
T1 construct: expressed in transfected cells
T1 sequence (P08173 1-479): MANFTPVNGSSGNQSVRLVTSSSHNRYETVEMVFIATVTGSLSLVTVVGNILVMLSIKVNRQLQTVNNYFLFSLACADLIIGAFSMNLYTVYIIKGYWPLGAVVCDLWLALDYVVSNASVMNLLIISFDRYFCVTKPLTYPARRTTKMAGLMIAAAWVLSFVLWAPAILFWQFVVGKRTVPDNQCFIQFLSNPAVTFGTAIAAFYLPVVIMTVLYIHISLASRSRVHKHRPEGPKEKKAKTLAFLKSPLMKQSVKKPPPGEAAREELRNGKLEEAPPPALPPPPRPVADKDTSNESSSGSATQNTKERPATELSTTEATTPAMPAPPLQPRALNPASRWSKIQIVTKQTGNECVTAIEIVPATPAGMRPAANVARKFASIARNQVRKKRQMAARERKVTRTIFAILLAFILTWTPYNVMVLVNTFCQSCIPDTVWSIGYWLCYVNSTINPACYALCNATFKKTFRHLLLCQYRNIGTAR
Method: (§1) Flp-In Chinese hamster ovary (CHO) (Thermo Fisher Scientific) cells stably expressing mAChR WTs or mutant constructs were cultured in Dulbecco’s modified Eagle’s medium (DMEM, Invitrogen) containing 5% foetal bovine serum (FBS; ThermoTrace) and […] of hygromycin (Roche) in a humidified incubator (37 °C, 5% CO2). Upon reaching confluence, media was removed, cells were washed with phosphate buffered saline (PBS) and harvested from tissue culture flasks using versene (PBS with 0.2 g EDTA). Cells were then pelleted through centrifugation at 350 × g for three minutes followed by resuspension in DMEM + 5% FBS. Cells were then either plated for an assay or reseeded into a tissue culture flask.

M5 mAChR WT = molecular target: T2, M5 mAChR WT (Homo sapiens, UniProt P08912); assay: [3H]-NMS radioligand dissociation binding, M5 mAChR WT
T2 construct: expressed in transfected cells
T2 sequence (P08912 1-532): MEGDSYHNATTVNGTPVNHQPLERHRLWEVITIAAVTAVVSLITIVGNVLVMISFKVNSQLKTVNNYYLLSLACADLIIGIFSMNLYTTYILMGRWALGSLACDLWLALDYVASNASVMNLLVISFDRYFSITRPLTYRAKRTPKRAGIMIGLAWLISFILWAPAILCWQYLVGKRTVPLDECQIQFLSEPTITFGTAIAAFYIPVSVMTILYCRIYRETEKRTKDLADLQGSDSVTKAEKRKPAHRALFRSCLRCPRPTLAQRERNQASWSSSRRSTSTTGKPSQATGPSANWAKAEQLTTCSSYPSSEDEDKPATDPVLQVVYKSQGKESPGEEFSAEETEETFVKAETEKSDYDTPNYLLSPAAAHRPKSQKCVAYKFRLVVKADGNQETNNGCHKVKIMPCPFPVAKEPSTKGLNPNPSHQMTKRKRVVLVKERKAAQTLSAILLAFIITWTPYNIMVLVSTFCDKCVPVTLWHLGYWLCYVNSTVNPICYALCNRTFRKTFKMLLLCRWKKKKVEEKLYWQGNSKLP
Method: as §1

M3 mAChR WT = molecular target: T3, M3 mAChR WT (Homo sapiens, UniProt P20309); assay: [3H]-NMS radioligand dissociation binding, M3 mAChR WT; conditions: M3 mAChR
T3 construct: expressed in transfected cells
T3 sequence (P20309 whole entry): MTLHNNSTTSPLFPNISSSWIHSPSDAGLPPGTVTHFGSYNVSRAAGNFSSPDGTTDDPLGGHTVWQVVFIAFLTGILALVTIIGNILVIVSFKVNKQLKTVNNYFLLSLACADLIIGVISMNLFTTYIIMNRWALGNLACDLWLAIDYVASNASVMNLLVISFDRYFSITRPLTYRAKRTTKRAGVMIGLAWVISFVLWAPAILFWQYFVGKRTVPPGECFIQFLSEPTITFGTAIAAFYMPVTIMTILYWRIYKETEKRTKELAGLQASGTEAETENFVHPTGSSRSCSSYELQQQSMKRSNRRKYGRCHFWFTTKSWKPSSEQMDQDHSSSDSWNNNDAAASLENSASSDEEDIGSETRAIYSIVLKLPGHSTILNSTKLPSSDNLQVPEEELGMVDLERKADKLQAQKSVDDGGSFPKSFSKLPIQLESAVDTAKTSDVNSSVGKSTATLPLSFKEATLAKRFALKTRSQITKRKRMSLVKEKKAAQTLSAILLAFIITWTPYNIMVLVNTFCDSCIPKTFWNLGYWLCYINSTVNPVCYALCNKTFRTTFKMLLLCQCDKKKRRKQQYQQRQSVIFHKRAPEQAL
Method: as §1

M2 mAChR WT = molecular target: T4, M2 mAChR WT (Homo sapiens, UniProt P08172); assay: [3H]-NMS radioligand dissociation binding, M2 mAChR WT
T4 construct: expressed in transfected cells
T4 sequence (P08172 1-466): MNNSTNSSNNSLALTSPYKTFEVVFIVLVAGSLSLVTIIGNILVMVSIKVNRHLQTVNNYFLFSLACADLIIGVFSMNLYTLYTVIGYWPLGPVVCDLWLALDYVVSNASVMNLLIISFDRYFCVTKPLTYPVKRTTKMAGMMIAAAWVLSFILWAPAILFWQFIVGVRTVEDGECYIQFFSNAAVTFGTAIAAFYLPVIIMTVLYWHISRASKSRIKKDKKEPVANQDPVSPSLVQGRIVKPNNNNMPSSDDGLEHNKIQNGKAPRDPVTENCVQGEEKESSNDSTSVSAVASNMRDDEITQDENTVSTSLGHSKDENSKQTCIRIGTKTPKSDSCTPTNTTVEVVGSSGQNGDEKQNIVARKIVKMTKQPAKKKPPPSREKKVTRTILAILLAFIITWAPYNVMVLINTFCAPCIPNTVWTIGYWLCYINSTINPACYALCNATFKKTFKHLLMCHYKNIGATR
Method: as §1

[1] = 10uM Atr + 30uM LY2033, 120 min
[2] = 10uM Atr + 30uM LY2033, 210 min
[3] = 10uM Atr + 10 μM Iperoxo, 30 min
[4] = 10uM Atr + 10 μM Iperoxo, 90 min
[5] = 10uM Atr + 10 μM Iperoxo, 10 min
[6] = 10uM Atr + 10 μM Iperoxo, 15 min
[7] = 10uM Atr + 10 μM Iperoxo, 120 min
[8] = 10uM Atr + 10 μM Iperoxo, 210 min

SMILES: COc1nc2sc(C(=O)NC3CC3)c(N)c2c(C)c1Cl [LY2033298]
- [3H]-NMS binding remaining (0 min = 100), MEAN (M4 mAChR WT; 10uM Atr + 10uM LY2033, 30 min): 112.685
- [3H]-NMS binding remaining (0 min = 100), MEAN (M4 mAChR WT; 10uM Atr + 10uM LY2033, 60 min): 100.725
- [3H]-NMS binding remaining (0 min = 100), MEAN (M4 mAChR WT; 10uM Atr + 10uM LY2033, 90 min): 100.81
- [3H]-NMS binding remaining (0 min = 100), MEAN (M4 mAChR WT; 10uM Atr + 10uM LY2033, 180 min): 78.3598
- [3H]-NMS binding remaining (0 min = 100), MEAN (M4 mAChR WT; 10uM Atr + 10uM LY2033, 300 min): 57.1596
- [3H]-NMS binding remaining (0 min = 100), MEAN (M4 mAChR WT; 10uM Atr + 30uM LY2033, 30 min): 97.9955
- [3H]-NMS binding remaining (0 min = 100), MEAN (M4 mAChR WT; 10uM Atr + 30uM LY2033, 90 min): 92.0634
- [3H]-NMS binding remaining (0 min = 100), MEAN (M4 mAChR WT; 10uM Atr + 30uM LY2033, 180 min): 80.808
- [3H]-NMS binding remaining (0 min = 100), MEAN (M4 mAChR WT; 10uM Atr + 30uM LY2033, 300 min): 69.858
- [3H]-NMS binding remaining (0 min = 100), MEAN (M5 mAChR WT; 10uM Atr + 30uM LY2033, 10 min): 102.761
- [3H]-NMS binding remaining (0 min = 100), MEAN (M5 mAChR WT; 10uM Atr + 30uM LY2033, 15 min): 100.045
- [3H]-NMS binding remaining (0 min = 100), MEAN (M5 mAChR WT; 10uM Atr + 30uM LY2033, 30 min): 98.0655
- [3H]-NMS binding remaining (0 min = 100), MEAN (M5 mAChR WT; 10uM Atr + 30uM LY2033, 90 min): 75.4577
- [3H]-NMS binding remaining (0 min = 100), MEAN (M5 mAChR WT; [1]): 66.5441
- [3H]-NMS binding remaining (0 min = 100), MEAN (M5 mAChR WT; [2]): 53.7527
- [3H]-NMS binding remaining (0 min = 100), MEAN (M3 mAChR WT; 10uM Atr + 30uM LY2033, 10 min): 96.1336
- [3H]-NMS binding remaining (0 min = 100), MEAN (M3 mAChR WT; 10uM Atr + 30uM LY2033, 15 min): 101.345
- [3H]-NMS binding remaining (0 min = 100), MEAN (M3 mAChR WT; 10uM Atr + 30uM LY2033, 30 min): 103.79
- [3H]-NMS binding remaining (0 min = 100), MEAN (M3 mAChR WT; 10uM Atr + 30uM LY2033, 90 min): 88.3999
- [3H]-NMS binding remaining (0 min = 100), MEAN (M3 mAChR WT; [1]): 77.6461
- [3H]-NMS binding remaining (0 min = 100), MEAN (M3 mAChR WT; [2]): 65.167
- [3H]-NMS binding remaining (0 min = 100), MEAN (M2 mAChR WT; 10uM Atr + 30uM LY2033, 5 min): 100.231
- [3H]-NMS binding remaining (0 min = 100), MEAN (M2 mAChR WT; 10uM Atr + 30uM LY2033, 10 min): 104.86
- [3H]-NMS binding remaining (0 min = 100), MEAN (M2 mAChR WT; 10uM Atr + 30uM LY2033, 15 min): 105.465
- [3H]-NMS binding remaining (0 min = 100), MEAN (M2 mAChR WT; 10uM Atr + 30uM LY2033, 30 min): 97.2904
- [3H]-NMS binding remaining (0 min = 100), MEAN (M2 mAChR WT; 10uM Atr + 30uM LY2033, 40 min): 99.7247
- [3H]-NMS binding remaining (0 min = 100), MEAN (M2 mAChR WT; 10uM Atr + 30uM LY2033, 60 min): 83.2953
- [3H]-NMS binding remaining (0 min = 100), MEAN (M2 mAChR WT; 10uM Atr + 30uM LY2033, 90 min): 74.9771

SMILES: C[N+](C)(C)CC#CCOC1=NOCC1 [iperoxo]
- [3H]-NMS binding remaining (0 min = 100), MEAN (M4 mAChR WT; [3]): 88.7252
- [3H]-NMS binding remaining (0 min = 100), MEAN (M4 mAChR WT; [4]): 52.6732
- [3H]-NMS binding remaining (0 min = 100), MEAN (M4 mAChR WT; 10uM Atr + 10 μM Iperoxo, 180 min): 31.8571
- [3H]-NMS binding remaining (0 min = 100), MEAN (M4 mAChR WT; 10uM Atr + 10 μM Iperoxo, 300 min): 17.3639
- effect on [3H]-NMS dissociation (in words) (M4 mAChR WT; wild-type M4 mAChR, increasing concentrations of xanomeline, saturating concentration of iperoxo): had no effect
- [3H]-NMS binding remaining (0 min = 100), MEAN (M5 mAChR WT; [5]): 98.7473
- [3H]-NMS binding remaining (0 min = 100), MEAN (M5 mAChR WT; [6]): 104.707
- [3H]-NMS binding remaining (0 min = 100), MEAN (M5 mAChR WT; [3]): 92.7543
- [3H]-NMS binding remaining (0 min = 100), MEAN (M5 mAChR WT; [4]): 56.424
- [3H]-NMS binding remaining (0 min = 100), MEAN (M5 mAChR WT; [7]): 46.6348
- [3H]-NMS binding remaining (0 min = 100), MEAN (M5 mAChR WT; [8]): 27.5139
- [3H]-NMS binding remaining (0 min = 100), MEAN (M3 mAChR WT; [5]): 100.4
- [3H]-NMS binding remaining (0 min = 100), MEAN (M3 mAChR WT; [6]): 96.8554
- [3H]-NMS binding remaining (0 min = 100), MEAN (M3 mAChR WT; [3]): 79.7803
- [3H]-NMS binding remaining (0 min = 100), MEAN (M3 mAChR WT; [4]): 45.8424
- [3H]-NMS binding remaining (0 min = 100), MEAN (M3 mAChR WT; [7]): 38.0708
- [3H]-NMS binding remaining (0 min = 100), MEAN (M3 mAChR WT; [8]): 19.3493
- [3H]-NMS binding remaining (0 min = 100), MEAN (M2 mAChR WT; 10uM Atr + 10 μM Iperoxo, 5 min): 84.1199
- [3H]-NMS binding remaining (0 min = 100), MEAN (M2 mAChR WT; [5]): 57.067
- [3H]-NMS binding remaining (0 min = 100), MEAN (M2 mAChR WT; [6]): 42.2975
- [3H]-NMS binding remaining (0 min = 100), MEAN (M2 mAChR WT; [3]): 18.0197
- [3H]-NMS binding remaining (0 min = 100), MEAN (M2 mAChR WT; 10uM Atr + 10 μM Iperoxo, 40 min): 11.4621
- [3H]-NMS binding remaining (0 min = 100), MEAN (M2 mAChR WT; 10uM Atr + 10 μM Iperoxo, 60 min): 5.852
- [3H]-NMS binding remaining (0 min = 100), MEAN (M2 mAChR WT; [4]): 5.287
